Target: T1, Kell (Homo sapiens, UniProt P23276)
T1 sequence (P23276 1-732): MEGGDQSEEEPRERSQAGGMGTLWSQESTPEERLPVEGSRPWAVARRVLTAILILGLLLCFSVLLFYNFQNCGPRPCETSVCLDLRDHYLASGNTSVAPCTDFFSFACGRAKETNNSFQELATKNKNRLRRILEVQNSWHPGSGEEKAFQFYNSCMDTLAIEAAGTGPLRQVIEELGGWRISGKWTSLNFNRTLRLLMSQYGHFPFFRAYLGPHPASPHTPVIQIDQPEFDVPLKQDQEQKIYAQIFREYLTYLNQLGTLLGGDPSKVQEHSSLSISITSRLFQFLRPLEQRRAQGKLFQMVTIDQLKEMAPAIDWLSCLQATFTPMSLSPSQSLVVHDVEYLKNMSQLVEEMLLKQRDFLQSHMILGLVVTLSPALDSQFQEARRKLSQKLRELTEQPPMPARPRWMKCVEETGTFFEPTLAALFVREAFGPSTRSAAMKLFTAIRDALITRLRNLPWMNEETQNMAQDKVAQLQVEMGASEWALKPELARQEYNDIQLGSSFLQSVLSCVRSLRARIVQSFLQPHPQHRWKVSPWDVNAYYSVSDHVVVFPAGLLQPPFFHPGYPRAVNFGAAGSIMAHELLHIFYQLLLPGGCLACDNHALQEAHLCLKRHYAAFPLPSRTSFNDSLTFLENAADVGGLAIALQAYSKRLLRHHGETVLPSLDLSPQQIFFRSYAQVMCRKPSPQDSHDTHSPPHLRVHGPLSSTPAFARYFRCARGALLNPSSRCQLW
Assay: microscale thermophoresis
Type: binding

O=C(O)CNC(=O)C(CS)Cc1ccccc1 (stereo not shown) [thiorphan]
Kd: 33 µM

From publication PMC12066708 (Communications Biology, 2025)
